Laboratory results published in ChEMBL document CHEMBL5042504 (J Med Chem, 2022).
The source made the active and inactive calls. The rule behind the calls is not given here.

Columns and labels:
[1] = biological target: T1, Protein deacetylase HDAC6 (Homo sapiens, UniProt Q9UBN7); test: Inhibition of human recombinant HDAC6 using Boc-Lys(acetyl)-AMC substrate incubated for 2 hrs by fluorescence based assay
T1 sequence (Q9UBN7 whole entry): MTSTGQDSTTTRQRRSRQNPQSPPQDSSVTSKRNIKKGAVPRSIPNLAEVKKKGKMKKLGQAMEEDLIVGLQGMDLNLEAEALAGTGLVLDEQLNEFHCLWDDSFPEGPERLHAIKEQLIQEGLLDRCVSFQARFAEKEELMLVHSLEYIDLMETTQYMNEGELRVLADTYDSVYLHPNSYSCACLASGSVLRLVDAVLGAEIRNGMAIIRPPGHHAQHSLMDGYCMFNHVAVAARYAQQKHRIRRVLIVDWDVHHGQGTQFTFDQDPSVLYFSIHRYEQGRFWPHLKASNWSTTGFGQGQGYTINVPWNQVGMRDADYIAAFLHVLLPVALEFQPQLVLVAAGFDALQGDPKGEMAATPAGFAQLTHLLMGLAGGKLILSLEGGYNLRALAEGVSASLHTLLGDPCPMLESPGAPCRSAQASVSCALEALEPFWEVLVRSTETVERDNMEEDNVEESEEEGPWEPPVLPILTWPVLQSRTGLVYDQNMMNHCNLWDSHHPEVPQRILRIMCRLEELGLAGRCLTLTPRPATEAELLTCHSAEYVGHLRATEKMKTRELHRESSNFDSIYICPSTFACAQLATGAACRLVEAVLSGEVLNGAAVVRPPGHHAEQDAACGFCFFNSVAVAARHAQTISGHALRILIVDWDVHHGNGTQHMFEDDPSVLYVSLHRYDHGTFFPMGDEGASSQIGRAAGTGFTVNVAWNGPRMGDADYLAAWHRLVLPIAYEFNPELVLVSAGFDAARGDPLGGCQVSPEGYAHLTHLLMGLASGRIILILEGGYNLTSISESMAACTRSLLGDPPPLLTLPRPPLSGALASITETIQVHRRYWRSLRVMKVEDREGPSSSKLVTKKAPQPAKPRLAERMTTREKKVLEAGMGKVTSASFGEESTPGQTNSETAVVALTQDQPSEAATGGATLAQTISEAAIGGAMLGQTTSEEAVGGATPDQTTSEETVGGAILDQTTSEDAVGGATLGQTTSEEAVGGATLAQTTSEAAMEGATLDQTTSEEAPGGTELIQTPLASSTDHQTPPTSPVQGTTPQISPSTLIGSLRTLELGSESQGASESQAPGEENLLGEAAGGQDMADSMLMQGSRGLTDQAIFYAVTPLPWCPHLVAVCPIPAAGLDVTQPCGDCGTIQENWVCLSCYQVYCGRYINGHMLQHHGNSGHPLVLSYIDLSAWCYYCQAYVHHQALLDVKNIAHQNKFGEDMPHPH

[2] = biological target: Histone deacetylase 1 (Homo sapiens, UniProt Q13547); test: Inhibition of human recombinant HDAC1 using Boc-Lys(acetyl)-AMC substrate incubated for 2 hrs by fluorescence based assay
Histone deacetylase 1, sequence (Q13547 whole entry): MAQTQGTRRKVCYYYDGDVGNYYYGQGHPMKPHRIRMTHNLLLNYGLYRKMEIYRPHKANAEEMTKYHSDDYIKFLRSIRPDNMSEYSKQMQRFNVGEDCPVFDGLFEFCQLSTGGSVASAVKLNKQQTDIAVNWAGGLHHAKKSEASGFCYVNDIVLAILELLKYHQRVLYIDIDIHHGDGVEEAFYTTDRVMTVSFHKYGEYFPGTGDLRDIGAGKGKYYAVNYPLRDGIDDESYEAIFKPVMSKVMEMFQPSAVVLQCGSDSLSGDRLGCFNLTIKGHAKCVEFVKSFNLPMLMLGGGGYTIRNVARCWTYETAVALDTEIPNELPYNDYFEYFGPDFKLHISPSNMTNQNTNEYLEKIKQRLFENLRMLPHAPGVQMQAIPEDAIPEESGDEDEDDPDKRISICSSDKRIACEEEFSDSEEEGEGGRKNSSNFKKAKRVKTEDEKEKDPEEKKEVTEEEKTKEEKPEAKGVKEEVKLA

[3] = biological target: Histone deacetylase 3 (Homo sapiens, UniProt O15379); test: Inhibition of human recombinant HDAC3 using Boc-Lys(acetyl)-AMC substrate incubated for 2 hrs by fluorescence based assay
Histone deacetylase 3, sequence (O15379 whole entry): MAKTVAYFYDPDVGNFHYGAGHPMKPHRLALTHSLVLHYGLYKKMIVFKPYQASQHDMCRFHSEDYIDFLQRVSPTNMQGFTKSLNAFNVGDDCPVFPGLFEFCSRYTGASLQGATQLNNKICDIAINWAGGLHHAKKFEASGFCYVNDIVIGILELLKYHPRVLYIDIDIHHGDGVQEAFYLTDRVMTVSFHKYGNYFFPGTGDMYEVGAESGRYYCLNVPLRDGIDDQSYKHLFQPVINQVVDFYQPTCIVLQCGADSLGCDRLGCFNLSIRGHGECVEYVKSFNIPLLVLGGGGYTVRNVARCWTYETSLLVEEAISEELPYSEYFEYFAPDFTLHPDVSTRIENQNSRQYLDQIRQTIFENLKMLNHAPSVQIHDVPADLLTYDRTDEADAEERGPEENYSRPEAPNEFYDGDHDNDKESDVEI

[4] = biological target: Histone deacetylase 2 (Homo sapiens, UniProt Q92769); test: Inhibition of human recombinant HDAC2 using Boc-Lys(acetyl)-AMC substrate incubated for 2 hrs by fluorescence based assay
Histone deacetylase 2, sequence (Q92769 whole entry): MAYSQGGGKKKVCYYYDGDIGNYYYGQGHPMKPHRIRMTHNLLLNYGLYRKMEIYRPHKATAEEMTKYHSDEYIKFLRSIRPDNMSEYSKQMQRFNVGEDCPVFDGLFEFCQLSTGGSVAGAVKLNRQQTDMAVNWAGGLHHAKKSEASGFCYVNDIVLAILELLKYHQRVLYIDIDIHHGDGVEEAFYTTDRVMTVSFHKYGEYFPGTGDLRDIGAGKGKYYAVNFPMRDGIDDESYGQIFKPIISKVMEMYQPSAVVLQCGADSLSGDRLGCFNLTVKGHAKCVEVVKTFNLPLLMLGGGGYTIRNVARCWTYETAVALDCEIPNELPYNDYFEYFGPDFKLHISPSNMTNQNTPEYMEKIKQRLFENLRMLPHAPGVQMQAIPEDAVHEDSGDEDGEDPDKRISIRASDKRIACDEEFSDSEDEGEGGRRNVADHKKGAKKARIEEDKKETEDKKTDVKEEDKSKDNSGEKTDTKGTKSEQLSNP

[5] = tested on: MV4-11; test: cells; settings: Homo sapiens, MV4-11, 48 h
Description: Antiproliferative activity against human MV4-11 AML cells assessed as cell viability measured after 48 hrs by multiplate reader method

[6] = Cmax in CD-1 mouse at 20 mg/kg, po measured upto 24 hrs; type: ADME, organism-based; design: route oral, dose 20 mg/kg, time <=24; settings: mouse, in vivo, 24 h
[7] = AUC (0 to infinity) in CD-1 mouse at 20 mg/kg, po measured upto 24 hrs; type: ADME, organism-based; design: route oral, dose 20 mg/kg, time <=24; settings: in vivo
[8] = Oral bioavailability in CD-1 mouse at 20 mg/kg measured upto 24 hrs; type: ADME, organism-based; settings: in vivo
[9] = tested on: MV4-11; test: Antitumor activity against human MV4-11 cells xenografted in BALB/c mouse assessed as tumor growth inhibition at 2 to 4 mg/kg, po administered for 24 days; type: functional; settings: dose 2-4 mg/kg, time 24.0 day
[10] = tested on: MV4-11; test: Antitumor activity against human MV4-11 cells xenografted in BALB/c mouse assessed as tumor growth inhibition at 4 mg/kg, ip administered for 24 days; type: functional, organism-based; settings: time 24.0 day
[11] = tested on: MV4-11; test: Antitumor activity against human MV4-11 cells xenografted in BALB/c mouse assessed as tumor growth inhibition at 4 mg/kg, po administered for 24 days; type: functional, organism-based; settings: time 24.0 day
[12] = Drug uptake in BALB/c mouse xenografted with human AML MV4-11 cells assessed as tumor tissue at 4mg/kg, po measured after 0.5 to 6 hrs by LC-MS/MS; type: ADME, organism-based; settings: in vivo, time 0.5-6 hrs
[13] = Drug uptake in BALB/c mouse xenografted with human AML MV4-11 cells assessed as tumor tissue at 4 mg/kg ip measured after 0.5 to 6 hrs by LC-MS/MS; type: ADME, organism-based; settings: in vivo, time 0.5-6 hrs
[14] = Plasma concentration in BALB/c mouse xenografted with human AML MV4-11 cells at 4 mg/kg, po; type: ADME, organism-based; settings: in vivo
[15] = Plasma concentration in BALB/c mouse xenografted with human AML MV4-11 cells at 4 mg/kg, ip; type: ADME, organism-based; settings: in vivo
[16] = Drug distribution in BALB/c mouse spleen measured at 4 mg/kg, po or ip after 0.5 hrs; type: ADME, organism-based; settings: in vivo
[17] = Drug distribution in BALB/c mouse liver measured at 4 mg/kg, po or ip after 0.5 hrs after 0.5 hrs; type: ADME, organism-based; settings: in vivo
[18] = Drug distribution in BALB/c mouse kidney measured at 4 mg/kg, po or ip after 0.5 hrs after 0.5 hrs; type: ADME, organism-based; settings: in vivo
[19] = Drug distribution in BALB/c mouse gut measured at 4 mg/kg, po or ip after 0.5 hrs after 0.5 hrs; type: ADME, organism-based; settings: in vivo
[20] = Drug distribution in BALB/c mouse heart measured at 4 mg/kg, po or ip after 0.5 hrs after 0.5 hrs; type: ADME, organism-based; settings: in vivo
[21] = Drug distribution in BALB/c mouse brain measured at 4 mg/kg, po or ip after 0.5 hrs after 0.5 hrs; type: ADME, organism-based; settings: in vivo
[22] = Drug distribution in BALB/c mouse lung measured at 4 mg/kg, po or ip after 0.5 hrs after 0.5 hrs; type: ADME, organism-based; settings: in vivo
[23] = Drug distribution in BALB/c mouse spleen measured at 4 mg/kg, po or ip after 2 to 8 hrs after 0.5 hrs; type: ADME, organism-based; settings: in vivo, time 2-8 hrs
[24] = Drug distribution in BALB/c mouse liver measured at 4 mg/kg, po or ip after 2 to 8 hrs after 0.5 hrs; type: ADME, organism-based; settings: in vivo, time 2-8 hrs
[25] = Drug distribution in BALB/c mouse kidney measured at 4 mg/kg, po or ip after 2 to 8 hrs after 0.5 hrs; type: ADME, organism-based; settings: in vivo, time 2-8 hrs
[26] = Drug distribution in BALB/c mouse gut measured at 4 mg/kg, po or ip after 2 to 8 hrs after 0.5 hrs; type: ADME, organism-based; settings: in vivo, time 2-8 hrs
[27] = Drug distribution in BALB/c mouse heart measured at 4 mg/kg, po or ip after 2 to 8 hrs after 0.5 hrs; type: ADME, organism-based; settings: in vivo, time 2-8 hrs
[28] = Drug distribution in BALB/c mouse brain measured at 4 mg/kg, po or ip after 2 to 8 hrs after 0.5 hrs; type: ADME, organism-based; settings: in vivo, time 2-8 hrs
[29] = Drug distribution in BALB/c mouse lung measured at 4 mg/kg, po or ip after 2 to 8 hrs after 0.5 hrs; type: ADME, organism-based; settings: in vivo, time 2-8 hrs
[30] = Drug distribution in tumor of BALB/c mouse xenografted with human MV4-11 cells assessed as measured after 0.5 hrs; type: ADME; settings: read-out: Ct
[31] = Drug distribution in tumor of BALB/c mouse xenografted with human MV4-11 cells assessed as measured after 2 hrs; type: ADME; settings: read-out: Ct
[32] = Drug distribution in tumor of BALB/c mouse xenografted with human MV4-11 cells assessed as measured after 8 hrs; type: ADME; settings: read-out: Ct

## CCCNNC(=O)c1ccc(CNC(=O)c2ccc3ccccc3n2)cc1
[1]
  IC50: > 10000 nM
[2]
  IC50: 10.7 nM
[3]
  IC50: 0.9 nM
[4]
  IC50: 57.3 nM
[5]
  IC50: 57.8 nM

## CCCNNC(=O)c1ccc(CNC(=O)c2cc3cc(Cl)ccc3o2)cc1
[1]
  IC50: > 10000 nM
[2]
  IC50: 8.91 nM
[3]
  IC50: 0.62 nM
[4]
  IC50: 28.1 nM
[5]
  IC50: 248 nM

## CCCNNC(=O)c1ccc(CNC(=O)c2cc3ccccc3cn2)cc1
[1]
  IC50: > 10000 nM
[2]
  IC50: 8.8 nM
[3]
  IC50: 1.48 nM
[4]
  IC50: 30.9 nM
[5]
  IC50: 45.9 nM

## CCCNNC(=O)c1ccc(CNC(=O)c2nc3ccccc3[nH]2)cc1
[1]
  IC50: > 10000 nM
[2]
  IC50: 11.3 nM
[3]
  IC50: 1.44 nM
[4]
  IC50: 33.4 nM
[5]
  IC50: 53.1 nM

## CCCNNC(=O)c1ccc(CNC(=O)c2cc3cc(OC)ccc3[nH]2)cc1
[1]
  IC50: > 10000 nM
[2]
  IC50: 4.66 nM
[3]
  IC50: 0.58 nM
[4]
  IC50: 16.4 nM
[5]
  IC50: 37.5 nM

## CCCNNC(=O)/C=C/c1ccc(CNCCc2c(C)[nH]c3ccccc23)cc1
[1]
  IC50: > 10000 nM
[6]
  Cmax: 45.1 ng/mL
[7]
  AUC: 265 ng·h/mL
[8]
  F: 19.8%

## Cc1[nH]c2ccccc2c1CCNCc1ccc(/C=C/C(=O)NO)cc1 [PANOBINOSTAT]
[9]
  TGI: inactive
[10]
  Activity: Active
[11]
  Activity: Active
[12]
  Drug uptake: Active
[13]
  Drug uptake: Active
[14]
  Drug uptake: Active
[15]
  Drug uptake: Active
[16]
  Drug uptake: Active
[17]
  Drug uptake: Active
[18]
  Drug uptake: Active
[19]
  Drug uptake: Active
[20]
  Drug uptake: Active
[21]
  Drug uptake: Active
[22]
  Drug uptake: Active
[23]
  Drug uptake: Active
[24]
  Drug uptake: Active
[25]
  Drug uptake: Active
[26]
  Drug uptake: Active
[27]
  Drug uptake: Active
[28]
  Drug uptake: Active
[29]
  Drug uptake: Active
[30]
  concentration at 0.5 h: 82.4 ng/g
[31]
  concentration at 2 h: 151 ng/g
[32]
  concentration at 8 h: 108 ng/g

## C=CCOc1ccc2oc(C(=O)NCc3ccc(C(=O)NNCCC)cc3)cc2c1
[1]
  IC50: > 10000 nM
[2]
  IC50: 11.7 nM
[3]
  IC50: 0.85 nM
[4]
  IC50: 35.8 nM
[5]
  IC50: 53.8 nM

## CCCNNC(=O)c1ccc(CNC(=O)c2nc3ccccc3s2)cc1
[1]
  IC50: > 10000 nM
[2]
  IC50: 9.73 nM
[3]
  IC50: 1.31 nM
[4]
  IC50: 42 nM
[5]
  IC50: 43.6 nM

## CCCNNC(=O)c1ccc(CNC(=O)c2cc3cc(Cl)ccc3[nH]2)cc1
[1]
  IC50: > 10000 nM
[2]
  IC50: 13.8 nM
[3]
  IC50: 0.66 nM
[4]
  IC50: 46.1 nM
[5]
  IC50: 37.7 nM

## CCCNNC(=O)c1ccc(CNC(=O)c2cc3cc(OC)ccc3o2)cc1
[1]
  IC50: > 10000 nM
[2]
  IC50: 7.4 nM
[3]
  IC50: 0.28 nM
[4]
  IC50: 26.1 nM
[5]
  IC50: 52.1 nM
